The source of these data is US12577245B2, “Sulfonyl benzamide derivatives as Bcl-2 inhibitors” (ASCENTAGE PHARMA (SUZHOU) CO., LTD., priority 2021, dated 2026).

A value given as a limit tells only on which side of the number the result lay.

Assay [1] has as its system MV-4-11 cells. Briefly: CCK-8 cell viability assay in MV-4-11 cells. It is filed as cell-based. The settings on record: Homo sapiens, MV4-11, 72 h, 10% FBS, 3 days. The protocol:
MV-4-11 cells were obtained from University of Michigan. Cells were maintained in the RPMI-1640 medium with 10% FBS and 1% P/S at 37° C. and an atmosphere of 5% CO2.
• The effect of representative Compounds of the Disclosure on cell viability was determined using Cell Counting Kit-8 (CCK-8) assay (Shanghai Life iLab Biotech) according to the manufacturer's instructions. Each tested compound was serially diluted in culture medium, and 100 μL of the compound dilution was added to the corresponding well of the cell plate. 100 μL of MV-4-11 cell suspension (20000 cells/well) in culture medium were seeded into 96-well plates. The cells were incubated at 37° C. in an atmosphere of 5% CO2 for 3 days. At the end of 3 days, 20 μL of CCK-8 solution was added to each well of the plate and incubated for 1-4 hours. The plates were read at 450 nm on the Biotek plate reader. The readings were normalized to the vehicle cells, and the IC50 was calculated using GraphPad Prism 8 software.
For orientation: Formazan colour is commonly taken as a measure of viable cells.

The test system of assay [2] is RS4; 11Bcl-2-G101V cells. The assay is described as follows: CellTiter-Glo (CTG) cell viability assay in RS4;11-Bcl-2-G101V cells. It counts as cell-based. To be noted: 72 h, 10% FBS, 3 days. On the procedure: RS4; 11Bcl-2-G101V, RS4; 11Bcl-2-D103E, RS4; 11Bcl-2-V156D and RS4; 11Bcl-2-G101V-D103E cells were obtained from Cobioer Biosciences. Cells were maintained in the RPMI-1640 medium with 10% FBS, 1% P/S and puromycin (1 μg/mL) at 37° C. and an atmosphere of 5% CO2.
• The effect of representative Compounds of the Disclosure on cell viability was determined using CellTiter-Glo® (CTG) luminescent cell viability assay (Promega, USA) according to the manufacturer's instructions. 95 μL of cell suspension (10000 cells/well) in culture medium were seeded into 96-well plates and cultured 4 hours. Each tested compound was serially diluted in blank culture medium, and 5 μL of the compound dilution was added to the corresponding well of the cell plate. After the addition of the tested compound, the cells were incubated at 37° C. in an atmosphere of 5% CO2 for 3 days. At the end of 3 days, 30 μL of CTG solution was added to each well of the plate and mix contents for 2 minutes on an orbital shaker. Allow the plate to incubate at room temperature for 15 mins to stabilize signal and record RLU on the Biotek plate reader. The readings were normalized to the vehicle cells, and the IC50 was calculated using GraphPad Prism 8 software.
For orientation: ATP-based viability assays read luminescence as a measure of living cells.

As a reminder, the IC50 is the concentration needed to halve the response being measured. Low readings indicate higher potency, high ones lower potency. Regarding `Cc1ccsc1C1=C(CN2CCN(c3ccc(C(=O)NS(=O)(=O)c4ccc(NCC5CCOCC5)c([N+](=O)[O-])c4)c(Oc4cnc5[nH]ccc5c4)c3)CC2)CCC(C)(C)C1` [Example 4, 2-((1H-pyrrolo[2,3-b]pyridin-5-yl)oxy)-4-(4-((4,4-dimethyl-2-(3-methylthiophen-2-yl)cyclohex-1-en-1-yl)methyl)piperazin-1-yl)-N-((3-nitro-4-(((tetrahydro-2H-pyran-4-yl)methyl)amino)phenyl)sulfonyl)benzamide], the half-maximal inhibitory concentration (IC50) was determined as 54 nM in assay [1] and 3250 nM in assay [2].

`Cc1csc(C2=C(CN3CCN(c4ccc(C(=O)NS(=O)(=O)c5ccc(NCC6CCOCC6)c([N+](=O)[O-])c5)c(Oc5cnc6[nH]ccc6c5)c4)CC3)CCC(C)(C)C2)c1` [Example 5, 2-((1H-pyrrolo[2,3-b]pyridin-5-yl)oxy)-4-(4-((4,4-dimethyl-2-(4-methylthiophen-2-yl)cyclohex-1-en-1-yl)methyl)piperazin-1-yl)-N-((3-nitro-4-(((tetrahydro-2H-pyran-4-yl)methyl)amino)phenyl)sulfonyl)benzamide]: the results for the IC50 in assay [1] and in assay [2] were 79 nM and 3820 nM, respectively.

As to `CC(C)c1cscc1C1=C(CN2CCN(c3ccc(C(=O)NS(=O)(=O)c4ccc(NCC5CCOCC5)c([N+](=O)[O-])c4)c(Oc4cnc5[nH]ccc5c4)c3)CC2)CCC(C)(C)C1` [Example 7, 2-((1H-pyrrolo[2,3-b]pyridin-5-yl)oxy)-4-(4-((2-(4-isopropylthiophen-3-yl)-4,4-dimethylcyclohex-1-en-1-yl)methyl)piperazin-1-yl)-N-((3-nitro-4-(((tetrahydro-2H-pyran-4-yl)methyl)amino)phenyl)sulfonyl)benzamide], the IC50 worked out at 209 nM in assay [1] and 4270 nM in assay [2].

`CC(C)c1cscc1C1=C(CN2CCN(c3ccc(C(=O)NS(=O)(=O)c4ccc(NC[C@H]5COCCO5)c([N+](=O)[O-])c4)c(Oc4cnc5[nH]ccc5c4)c3)CC2)CCC(C)(C)C1` [Example 9, (S)—N-((4-(((1,4-dioxan-2-yl)methyl)amino)-3-nitrophenyl)sulfonyl)-2-((1H-pyrrolo[2,3-b]pyridin-5-yl)oxy)-4-(4-((2-(4-isopropylthiophen-3-yl)-4,4-dimethylcyclohex-1-en-1-yl)methyl)piperazin-1-yl)benzamide]: the IC50 was determined as 167 nM in assay [1] and 5420 nM in assay [2].

As to `CC(C)c1ccc(C2=C(CN3CCN(c4ccc(C(=O)NS(=O)(=O)c5ccc(NCC6CCOCC6)c([N+](=O)[O-])c5)c(Oc5cnc6[nH]ccc6c5)c4)CC3)CCC(C)(C)C2)s1` [Example 12, 2-((1H-pyrrolo[2,3-b]pyridin-5-yl)oxy)-4-(4-((2-(5-isopropylthiophen-2-yl)-4,4-dimethylcyclohex-1-en-1-yl)methyl)piperazin-1-yl)-N-((3-nitro-4-(((tetrahydro-2H-pyran-4-yl)methyl)amino)phenyl)sulfonyl)benzamide], the IC50 in assay [1] worked out at 164 nM; in assay [2], 4030 nM.

As for `CC(C)c1sccc1C1=C(CN2CCN(c3ccc(C(=O)NS(=O)(=O)c4ccc(NC[C@H]5COCCO5)c([N+](=O)[O-])c4)c(Oc4cnc5[nH]ccc5c4)c3)CC2)CCC(C)(C)C1` [Example 13, (S)—N-((4-(((1,4-dioxan-2-yl)methyl)amino)-3-nitrophenyl)sulfonyl)-2-((1H-pyrrolo[2,3-b]pyridin-5-yl)oxy)-4-(4-((2-(2-isopropylthiophen-3-yl)-4,4-dimethylcyclohex-1-en-1-yl)methyl)piperazin-1-yl)benzamide], the IC50 in assay [1] turned out to be 25 nM; in assay [2] it was 1790 nM.

As to `CC(C)c1ccc(C2=C(CN3CCN(c4ccc(C(=O)NS(=O)(=O)c5ccc(NC[C@H]6COCCO6)c([N+](=O)[O-])c5)c(Oc5cnc6[nH]ccc6c5)c4)CC3)CCC(C)(C)C2)s1` [Example 14, (S)—N-((4-(((1,4-dioxan-2-yl)methyl)amino)-3-nitrophenyl)sulfonyl)-2-((1H-pyrrolo[2,3-b]pyridin-5-yl)oxy)-4-(4-((2-(5-isopropylthiophen-2-yl)-4,4-dimethylcyclohex-1-en-1-yl)methyl)piperazin-1-yl)benzamide], the IC50 was 98 nM in assay [1] and 2660 nM in assay [2].

Regarding `CC1(C)CCC(CN2CCN(c3ccc(C(=O)NS(=O)(=O)c4ccc(NC[C@H]5COCCO5)c([N+](=O)[O-])c4)c(Oc4cnc5[nH]ccc5c4)c3)CC2)=C(c2cc(Nc3ccc(F)cc3F)cs2)C1` [Example 20, (S)—N-((4-(((1,4-dioxan-2-yl)methyl)amino)-3-nitrophenyl)sulfonyl)-2-((1H-pyrrolo[2,3-b]pyridin-5-yl)oxy)-4-(4-((2-(4-((2,4-difluorophenyl)amino)thiophen-2-yl)-4,4-dimethylcyclohex-1-en-1-yl)methyl)piperazin-1-yl)benzamide], the IC50 in assay [1] was more than 1000 nM; in assay [2], more than 10000 nM.

Take `CC1(C)CCC(CN2CCN(c3ccc(C(=O)NS(=O)(=O)c4ccc(NC[C@H]5COCCO5)c([N+](=O)[O-])c4)c(Oc4cnc5[nH]ccc5c4)c3)CC2)=C(c2cc(CN3CC4(C3)CN(S(C)(=O)=O)C4)cs2)C1` [Example 27]: the results for the IC50 in assay [1] and in assay [2] were 126 nM and 1040 nM, respectively.

As for `CC1(C)CCC(CN2CCN(c3ccc(C(=O)NS(=O)(=O)c4ccc(NC[C@H]5CC[C@](C)(O)CC5)c([N+](=O)[O-])c4)c(Oc4cnc5[nH]ccc5c4)c3)CC2)=C(c2cc(-c3c(F)cc(F)cc3F)cs2)C1` [Example 47, 2-((1H-pyrrolo[2,3-b]pyridin-5-yl)oxy)-4-(4-((4,4-dimethyl-2-(4-(2,4,6-trifluorophenyl)thiophen-2-yl)cyclohex-1-en-1-yl)methyl)piperazin-1-yl)-N-((4-((((1r,4r)-4-hydroxy-4-methylcyclohexyl)methyl)amino)-3-nitrophenyl)sulfonyl)benzamide], the IC50 in assay [1] was found to be 5 nM; in assay [2], 190 nM.

For the molecule `CC1(C)CCC(CN2CCN(c3ccc(C(=O)NS(=O)(=O)c4ccc(NC[C@H]5COCCO5)c([N+](=O)[O-])c4)c(Oc4cnc5[nH]ccc5c4)c3)CC2)=C(c2cc(-c3ccc(F)cn3)cs2)C1` [Example 52, (S)—N-((4-(((1,4-dioxan-2-yl)methyl)amino)-3-nitrophenyl)sulfonyl)-2-((1H-pyrrolo[2,3-b]pyridin-5-yl)oxy)-4-(4-((2-(4-(5-fluoropyridin-2-yl)thiophen-2-yl)-4,4-dimethylcyclohex-1-en-1-yl)methyl)piperazin-1-yl)benzamide], the IC50 in assay [1] is 296 nM; in assay [2], 4990 nM.

As to `CC1(C)CCC(CN2CCN(c3ccc(C(=O)NS(=O)(=O)c4ccc(NC[C@H]5COCCO5)c([N+](=O)[O-])c4)c(Oc4cnc5[nH]ccc5c4)c3)CC2)=C(c2cc(-c3c(F)cc(F)c4cc[nH]c34)cs2)C1` [Example 57, (S)—N-((4-(((1,4-dioxan-2-yl)methyl)amino)-3-nitrophenyl)sulfonyl)-2-((1H-pyrrolo[2,3-b]pyridin-5-yl)oxy)-4-(4-((2-(4-(4,6-difluoro-1H-indol-7-yl)thiophen-2-yl)-4,4-dimethylcyclohex-1-en-1-yl)methyl)piperazin-1-yl)benzamide], the IC50 in assay [1] came to 1210 nM; in assay [2], 5810 nM.

Take `CC1(C)CCC(CN2CCN(c3ccc(C(=O)NS(=O)(=O)c4ccc(NC[C@H]5CC[C@](C)(O)CC5)c([N+](=O)[O-])c4)c(Oc4cnc5[nH]ccc5c4)c3)CC2)=C(c2cc(C#Cc3ccc(F)cc3)cs2)C1` [Example 61, 2-((1H-pyrrolo[2,3-b]pyridin-5-yl)oxy)-4-(4-((2-(4-((4-fluorophenyl)ethynyl)thiophen-2-yl)-4,4-dimethylcyclohex-1-en-1-yl)methyl)piperazin-1-yl)-N-((4-((((1r,4r)-4-hydroxy-4-methylcyclohexyl)methyl)amino)-3-nitrophenyl)sulfonyl)benzamide]: the IC50 worked out at 107 nM in assay [1] and 3180 nM in assay [2].

For the molecule `Cc1cc(C(C)(C)O)cc(C)c1-c1csc(C2=C(CN3CCN(c4ccc(C(=O)NS(=O)(=O)c5ccc(NC[C@H]6CC[C@](C)(O)CC6)c([N+](=O)[O-])c5)c(Oc5cnc6[nH]ccc6c5)c4)CC3)CCC(C)(C)C2)c1` [Example 65, 2-((1H-pyrrolo[2,3-b]pyridin-5-yl)oxy)-N-((4-((((1r,4r)-4-hydroxy-4-methylcyclohexyl)methyl)amino)-3-nitrophenyl)sulfonyl)-4-(4-((2-(4-(4-(2-hydroxypropan-2-yl)-2,6-dimethylphenyl)thiophen-2-yl)-4,4-dimethylcyclohex-1-en-1-yl)methyl)piperazin-1-yl)benzamide], the figures for the IC50 in assay [1] and in assay [2] were 192 nM and 598 nM, respectively.
